Read-outs that look alike come from different tables or passages of the source.
How the values were obtained:
DENV-4 = DENV-4 infection, immunofluorescence assay; type: cell-based; settings: Dengue virus, read-out: EC50 against DENV-4
HSV-1-eGFP = test: microbe, parasite or virus in culture; type: cell-based, herpes simplex virus type 1; settings: Human alphaherpesvirus 1, A549, 48 h, read-out: EC50 against HSV-1-eGFP
in vitro = settings: African green monkey
DENV-2, ZIKV, and JEV = test: Viral binding and internalization assays; type: cell-based; settings: A549 cells, MOI 2, viral RNA by RT-qPCR
ZIKV, JEV, and YFV = test: organism not typed; type: cell-based; settings: read-out: EC50 against ZIKV, JEV, and YFV, bound stated
VSV-eGFP = test: microbe, parasite or virus in culture; type: cell-based; settings: Vesicular stomatitis virus, A549, 24 h, read-out: EC50 against VSV-eGFP
ZIKV = test: microbe, parasite or virus in culture; type: cell-based, ZIKV strain SZ01; settings: Zika virus, read-out: EC50 against ZIKV
DENV-1 = test: microbe, parasite or virus in culture; type: cell-based, DENV-1 clone D19044_7M; settings: Dengue virus, read-out: EC50 against DENV-1
HUVEC cells = settings: human
ATP6V0A2 = ATP6V0A2 mRNA level by RT-qPCR; type: cell-based, human
SeV = type: cell-based, Sendai virus

COc1cc2c(OCC#N)c3c(c(-c4ccc5c(c4)OCO5)c2cc1OC)C(=O)OC3 [Compound C156-P1]
EC50 (DENV-4; DENV4, A549, 48 h): 5.31 nM | EC50 (DENV-4; DENV4, Vero, 48 h): 5.53 nM | EC50 (HSV-1-eGFP): 6.21 nM | CC50 (in vitro): 431 nM | Effect on internalization or binding steps of DENV-2, ZIKV, and JEV (DENV-2, ZIKV, and JEV): did not exhibit inhibitory effects | EC50 (ZIKV, JEV, and YFV): < 6 nM | EC50 (VSV-eGFP): 9.27 nM | EC50 (ZIKV; A549, 48 h): 1.01 nM | EC50 (ZIKV; Vero, 48 h): 0.76 nM | EC50 (DENV-1; DENV1, A549, 48 h): 8.38 nM | EC50 (DENV-1; DENV1, Vero, 48 h): 5.76 nM | Concentration tolerable for cytotoxicity (HUVEC cells): < 0.0625 µM | ATP6V0A2 mRNA expression (ATP6V0A2): decrease in ATP6V0A2 mRNA expression | Inhibition of SeV infection (viral NP mRNA) (SeV): did not inhibit SeV infection

Source: publication PMC12587552, “A nitrogen-containing diphyllin derivative C156-P1 exhibited broad-spectrum antiviral activity against Flaviviridae viruses by preventing endosomal acidification” (Antimicrobial Agents and Chemotherapy, 2025)
